Where “and” joins values, the source holds several entries; their conditions need not be identical. Equal values may be shown once.
Columns and labels:
alcohol dehydrogenase [1] = assay: Effect of thyroxine analogues on alcohol dehydrogenase activity; format: biochemical; conditions: for Relative Increase (%): None = 100
[2] = tested on: malate-aspartate shuttle in rabbit liver mitochondria; assay: NADH oxidation by malate-aspartate shuttle in liver mitochondria; format: biochemical; conditions: for Effect on oxidation of NADH: added to rabbit liver mitochondria
alcohol dehydrogenase [3] = assay: Effect of hormonal compounds on enzyme activity of alcohol dehydrogenase; format: biochemical; set-up: Relative activity (%): concentration or dose not given beside the values; conditions: for Relative activity (%): Control = 100.0
[4] = blood alcohol reading; cited from earlier work
[5] = tested on: oxidation of ethanol and acetaldehyde; assay: Absorbance change of pig liver extract without INT (340 nm) and with INT (500 nm); format: biochemical; conditions: animal glandular extract, in the presence of INT
Procedure: Phosphate buffer: 0.05 M (pH=7.5); INT: 12.7 mM; ethanol: 1.0% (V/V); aldehyde: 17.6 mM. No NAD was added.
As described in testing method f, in the presence of diaphorases, INT is reduced to forzaman, while NADH is oxidized to NAD in a 1:1 mole stoichiometric ratio. Therefore, the increase in the absorbance at 500 nm is directly proportional to the concentration of forzaman.
FIG. 3 and Table 4 show the change of absorbance at 500 nm versus time. […] Since NAD and NADH are high very difficult to purify, the costs of use of external high purity NAD has been proven to be prohibitively high. The present invention provides a cost-effective method for preparing the enzyme-coenzyme formulation.

aldehyde dehydrogenase = assay: Thyroxine stimulation of aldehyde dehydrogenase activity; format: biochemical
Description: Thyroxine has extremely high stimulating effect on the enzyme activity of alcohol dehydrogenases and aldehyde dehydrogenases. […] Some are as twice effective as thyroxine at the same concentration.

[6] = tested on: Alcohol dehydrogenase (from Sigma Aldrich Chemical Company); assay: Alcohol dehydrogenase activity vs. NAD concentration; format: biochemical; conditions: Tris Buffer pH 8.5, ethanol 3% (V/V), ADH 5 units, 340 nm
Procedure: Testing conditions: 0.05 M Tris Buffer (pH=8.5); ethanol=3% (V/V); Alcohol dehydrogenase (from Sigma Aldrich Chemical Company): 5 units. ADH activity was determined by measuring absorbance change at 340 nm.

[7] = tested on: alcohol dehydrogenase prepared from yeast extract; assay: NAD regeneration through coupling reactions with yeast extract ADH, INT and diaphorase; format: biochemical; conditions: 0.5 mM and 2.0 mM NAD, ethanol 1.0% (V/V), pH 7.5
Procedure: Phosphate buffer: 0.05 M (pH=7.5); ethanol: 1.0% (V/V). There was no absorbance change in the absence of NAD.
Phosphate buffer: 0.05 M (pH=7.5); INT: 12.7 mM; ethanol: 1.0% (V/V); NAD=2.0 mM; Diaphorase: 2 units.
In this example, the INT system was selected to illustrate the effectiveness of the regeneration of NAD by coupling compounds, since the reaction product, i.e., formazan, gives a maximum absorbance at 500 nm. Then the coupling reactions (see FIG. 6) can be directly quantified by spectrophotometric measurements.

blood alcohol = assay: In vivo test of alcohol metabolism by dog (blood alcohol reading)
Procedure: Dog body weight: 13.9 kilograms. 42 grams of alcohol was administrated at time 0. ●—Control (i.e., no further treatment in the first 5 hours); ▪—10 grams pyruvate was administrated orally at 5 hours; ▴ 10 grams of alanine was administrated at 1.5 hour and then 5 hours.
In this example, the effectiveness of using compositions described above for accelerating alcohol metabolism was validated by in vivo tests with dogs. Six dogs (as described in Table 9) were used in the in vivo tests. The dogs were fasted 12 to 16 hours and then given 20% alcohol orally in a dose of 3 g/kg body weight. Approximately 1.5 hours were allowed for complete absorption and distribution of the alcohol. Blood samples were taken from the leg veins. The blood alcohol reading (BAR) was determined by measuring alcohol concentration in blood using the Sigma Aldrich alcohol assay method (Assay No. 333).

[8] = average of the dog tests, 5 or 10 g

Row | Molecule | Absorbance Change (units/min @ 340 nm) (alcohol dehydrogenase [1]; Dosage 17 μM) | Relative Increase (%) (alcohol dehydrogenase [1]; Dosage 17 μM) | Relative activity (%) (alcohol dehydrogenase [3]) | other results
1 | NC(Cc1ccc(Oc2ccc(O)cc2)cc1)C(=O)O (racemic) [DL-thyronine] | 0.535 units/min | 535% |  | 
2 | O=C([O-])CC(O)C(=O)[O-].[Na+].[Na+] (racemic) [malate, DL-Hydroxybutanedioic acid] |  |  |  | Effect on oxidation of NADH [2]: substantially increases the oxidation of NADH; Relative effectiveness in NADH oxidation ([2]; malate vs. aspartate): more effective than aspartate
3 | O=C(O)CCc1cc(I)c(Oc2cc(I)c(O)c(I)c2)c(I)c1 [3,3,5,5′-tetraiodothyropropionic acid] | 0.75 units/min | 750% |  | 
4 | O=C(O)Cc1cc(I)c(Oc2ccc(O)c(I)c2)c(I)c1 [3,3′5-triiodothyroacetic acid] | 0.715 units/min | 715% |  | 
5 | O=C(O)CCc1cc(I)c(Oc2ccc(O)c(I)c2)c(I)c1 [3,3′5-triiodothyropropionic acid] | 0.676 units/min | 676% |  | 
6 | O=C(O)CCc1ccc(Oc2cc(I)c(O)c(I)c2)c(I)c1 [3,3′5′-triiodothyropropionic acid] | 0.865 units/min | 865% |  | 
7 | N[C@@H](Cc1cc(Br)c(Oc2ccc(O)c(I)c2)c(Br)c1)C(=O)O [3,5-dibromo-3′-iodo-thyronine] | 0.48 units/min | 480% |  | 
8 | N[C@@H](Cc1cc(I)c(O)c(I)c1)C(=O)O [3,5-diiodo-l-thyrosine] |  |  |  | Absorbance Change (units/min @ 340 nm) (alcohol dehydrogenase [1]; Dosage 170 μM): 0.256 units/min; Relative Increase (%) (alcohol dehydrogenase [1]; Dosage 170 μM): 256%; Absorbance Change (units/min @ 340 nm) (alcohol dehydrogenase [1]; Dosage 340 μM): 0.36 units/min; Relative Increase (%) (alcohol dehydrogenase [1]; Dosage 340 μM): 360%
9 | C[C@]12CCC(=O)C=C1CC[C@@H]1[C@@H]2CC[C@]2(C)C(=O)CC[C@@H]12 [4-Androsterone-3,17-dione] |  |  | 128% | 
10 | CCO [Alcohol, ethanol] |  |  |  | Anesthetic effects (BAR) [4]: (0.30-0.40%); Death; LD50 (BAR) [4]: (0.45-0.50%)
11 | C[C@]12CC[C@@H](O)C[C@@H]1CC[C@@H]1[C@@H]2CC[C@]2(C)C(=O)CC[C@@H]12 [Androsterone] |  |  | 119% | 
12 | C[C@]12C[C@H](O)[C@H]3[C@@H](CCC4=CC(=O)CC[C@@]43C)[C@@H]1CC[C@@H]2C(=O)CO [Corticosterone] |  |  | 112% | 
13 | C[C@]12CCC(=O)C=C1CC[C@@H]1[C@@H]2C(=O)C[C@@]2(C)[C@H]1CC[C@]2(O)C(=O)CO [Cortisone] |  |  | 116% | 
14 | C[C@]12CC[C@H](O)CC1=CC[C@@H]1[C@@H]2CC[C@]2(C)C(=O)CC[C@@H]12 [Dehydroepi-androsterone] |  |  | 200% | 
15 | C[C@]12CC[C@H]3[C@@H](CCC4=CC(=O)CC[C@@]43C)[C@@H]1CC[C@@H]2C(=O)CO [Deoxycorticosterone] |  |  | 115% | 
16 | CC/C(=C(/CC)c1ccc(O)cc1)c1ccc(O)cc1 [Diethylstilbestrol] |  |  |  | Increase of alcohol dehydrogenase activity (alcohol dehydrogenase [3]; as low as 10 μM): more than 100%
17 | O=[N+]([O-])c1ccc(-n2nc(-c3ccccc3)n[n+]2-c2ccc(I)cc2)cc1.[Cl-] [INT] |  |  |  | Effect of INT on oxidation of ethanol and acetaldehyde [5]: enhanced substantially
18 | N[C@@H](Cc1cc(I)c(Oc2cc(I)c(O)c(I)c2)c(I)c1)C(=O)O [L-thyroxine, L-Thyroxine] | 0.30 units/min | 300% |  | Increase of enzyme activity (aldehyde dehydrogenase; as little as 2 μM): > 100%; Effect on alcohol and aldehyde dehydrogenases at high dosages (aldehyde dehydrogenase; high dosages): becomes an inhibitor of the enzymes
19 | NC(=O)c1ccc[n+]([C@@H]2O[C@H](COP(=O)([O-])OP(=O)(O)OC[C@H]3O[C@@H](n4cnc5c(N)ncnc54)[C@H](O)[C@@H]3O)[C@@H](O)[C@H]2O)c1 [NAD, Nicotinamide Adenine Dinucleotide (NAD)] |  |  |  | Alcohol oxidation by alcohol dehydrogenase vs. NAD concentration [6]: increases with increasing NAD concentration; Absorbance on addition of NAD [7]: increases the absorbance
20 | CC(=O)[C@H]1CC[C@H]2[C@@H]3CCC4=CC(=O)CC[C@]4(C)[C@H]3CC[C@]12C [Progesterone] |  |  | 120% | 
21 | CC12CCC(=O)C=C1CCC1C2CCC2(C)C(O)CCC12 (centres unmarked) [Testerone] |  |  | 137% | 
22 | CC(=O)C(=O)[O-].[Na+] [sodium pyruvate, Pyruvic acid sodium salt] |  |  |  | BAR Reduction Rate after first dose, Average (blood alcohol; [8]): 211.4 ppm/hr; BAR Reduction Rate after second dose, Average (blood alcohol; [8]): 197.9 ppm/hr; BAR Reduction Rate after first dose (blood alcohol; dog, oral, 5 g, first dosing at 266-410 min after ethanol 3 g/kg, sodium salt): 212 ppm/hr and 160 ppm/hr and 253 ppm/hr and 252 ppm/hr; BAR Reduction Rate after second dose (blood alcohol; dog, oral, 10 g, second dosing at 310-464 min, sodium salt): 256 ppm/hr and 230 ppm/hr
23 | SodiumL-aspartate |  |  |  | Effect on oxidation of NADH [2]: substantially increases the oxidation of NADH

Source: US20050271739A1, “Methods and compositions for accelerating alcohol metabolism” (priority 2004, published 2005)
